Reference: US20230340498A1, “COMPOSITIONS AND METHODS FOR INDUCIBLE ALTERNATIVE SPLICING REGULATION OF GENE EXPRESSION” (The Children's Hospital of Philadelphia, priority 2020, published 2023)

Columns and labels:
[1] = system: Ai14 reporter genomic locus; assay: In vivo AAVPHPeB SF3B3.Xon SaCas9 editing of Ai14 reporter locus in brain; details: Ai14 mice, tdTomato expression
Text: To assess the applicability of Xon for brain targeted therapies, the SF3B3.Xon was packaged into AAVPHPeB vector to control the expression of SaCas9 protein and delivered to transgenic Ai14 reporter mice and BacHD mice (FIGS. 9A, 9C).

HEK293 cells = assay: PCR validation of LMI070-induced novel exons with primers binding the flanking exons; assay type: cell-based, Human; details: top 5 candidate genes; cDNA from HEK293 cells treated with LMI070 vs DMSO
Experimental: RNA extraction, RT-PCR, and Splicing assays. Total RNA was extracted using Trizol (Life Technologies) according to the manufacturer’s protocol, with the exception of 1 µL Glycoblue (Life Technologies) in addition to the aqueous phase on the isopropanol precipitation step and a single wash with cold 70% ethanol. To determine HTT expression levels after transfection, RNA samples were quantified by spectrophotometry and subsequently cDNAs generated from […] of total RNA with random hexamers (TaqMan RT reagents, Applied Biosystems). […] Relative HTT gene expression was determined using the ddCt method. […] Splicing was determined by PCR using the Phusion High-Fidelity polymerase (Thermofisher) and PCR products separated on a 2.5% agarose gel pre-stained with EtBr and spliced-in and spliced-out band densitometry performed using with the ChemiDoc Imaging System (BioRad) and Image Lab analysis software. Splicing induction from mouse tissues was determined using two custom TaqMan assays designed to determine total or LMI070-spliced in mRNA transcripts. The percentage of induction was determined by dividing the average Ct novel exon and average Ct Total, relative to control animals injected with AAV virus plus vehicle. […]

AAV8.Xon.Epo = assay: In vivo induction of AAV8.Xon.Epo in C57Bl6 mice; details: 24 h after the last LMI070 dose
Text: To assess the applicability of Xon for liver targeted therapies, AAV8.Xon.Epo and AAV8.Xon.SaCas9 vectors were generated and delivered to C57Bl6 and Ai14 reporter mice, respectively (FIGS. 7A, 7C, 7F).

AAV9.X^on.eGFP = assay: In vivo induction of AAV9.X^on.eGFP in mice by oral LMI070
Experimental: Animals and histology. Animal protocols were approved by The Children’s Hospital of Philadelphia Institutional Animal Care and Use Committee. Five to six-week-old male C57Bl6/j mice were obtained from Jackson Laboratories (Bar Harbor, ME, USA). AAV vectors (AAV9. X^on.eGFP or AAVPHBeB.X^on.eGFP; generated at the CHOP Research Vector Core) were administrated by retroorbital injection at 7-8 weeks of age with a total of 3E11 vg in 150 µL infused. After 4 weeks, a single dose of LMI070 (5 or 50 mg/kg, MedChemExpress HY-19620) or vehicle solution was administrated by oral gavage. After 18-24 h, mice used for biochemical or molecular studies were anesthetized and perfused with 0.9% cold saline mixed with 2-ml RNAlater (Ambion) solution. Brains and liver samples were collected, flash frozen in liquid nitrogen, and stored at -80 C until use. For immunohistochemistry studies, mice were perfused with 15 mL ice-cold 0.1 M PBS followed by 15 mL 4% paraformaldehyde. For brain sections, eGFP visualization was done by IHC using rabbit anti-GFP antibody (Invitrogen, 1:200) followed by Alexa488-conjugated goat anti-rabbit (Invitrogen, 1:500) and Alexa488-conjugated chicken anti-goat (Invitrogen, 1:500). Slices were mounted on Superfrost plus slides and coverslips mounted using fluoro-gel mounting media. Sections were analyzed using a DM6000B Leica microscope equipped with a L5 ET filter cube (ex:em of 470±20:525±15 nm and dichroic 495 nm), a 20X HC APO PLAN (N.A. 0.70) lens connected to a Sola Light Engine LED light source (Lumencor). Images were collected with a Hammatsu Orca flash4.0 monochrome camera controlled by Leica LAS X (v.3.0.3) software. Brain images represent a 7.98 µm thick z-stack deconvoluted by 3 iterations of the Blind algorithm.
RNA extraction, RT-PCR, and Splicing assays. Total RNA was extracted using Trizol (Life Technologies) according to the manufacturer’s protocol, with the exception of 1 µL Glycoblue (Life Technologies) in addition to the aqueous phase on the isopropanol precipitation step and a single wash with cold 70% ethanol. To determine HTT expression levels after transfection, RNA samples were quantified by spectrophotometry and subsequently cDNAs generated from […] of total RNA with random hexamers (TaqMan RT reagents, Applied Biosystems). To determine human HTT expression levels in HEK293 cells, we used TaqMan probes for human HTT and glyceraldehyde 3-phosphate dehydrogenase (GAPDH) mRNAs obtained from Applied Biosystems. Relative HTT gene expression was determined using the ddCt method. To determine splicing of the SMN2-on and Xon switches, 2 µg of total RNA from HEK293 cells or tissue samples was treated with DNAseI Free kit (Thermofisher) followed by cDNA generation using the High capacity cDNA kit (Thermofisher). Splicing was determined by PCR using the Phusion High-Fidelity polymerase (Thermofisher) and PCR products separated on a 2.5% agarose gel pre-stained with EtBr and spliced-in and spliced-out band densitometry performed using with the ChemiDoc Imaging System (BioRad) and Image Lab analysis software. Splicing induction from mouse tissues was determined using two custom TaqMan assays designed to determine total or LMI070-spliced in mRNA transcripts. The percentage of induction was determined by dividing the average Ct novel exon and average Ct Total, relative to control animals injected with AAV virus plus vehicle.
Western Blots. HEK293 cells were rinsed and lysed with Passive Lysis Buffer (PBL, Promega), protein concentrations determined using the DC protein assay (Bio-Rad), and 10-20 µg of protein loaded on a 3%-8% NuPAGE Tris-Acetate Gel in tris-acetate buffer (Novex Life Technologies) or a 4-12% NuPAGE TrisBis NuPAGE gels in MES buffer (Novex Life Technologies) to determine HTT, SaCas9, or eGFP protein levels, respectively, with β-catenin as loading control. […]

[2] = spliced expression cassette relative to vehicle, LMI070 50 mg/kg

CC1(C)CC(Oc2ccc(-c3ccc(-c4cn[nH]c4)cc3O)nn2)CC(C)(C)N1 [LMI070, 5-(1H-Pyrazol-4-yl)-2-(6-((2,2,6,6-tetramethylpiperidin-4-yl)oxy)pyridazin-3-yl)phenol]
editing of the Ai14 reporter genomic locus (brain) [1]: only observed on mice treated with LMI070
amplification of the novel exons by PCR (HEK293 cells): Robust amplification
induction of Mouse Epo and hematocrit levels (AAV8.Xon.Epo): Induction of Mouse Epo and hematocrit levels were detected
eGFP expression in sections from liver (AAV9.X^on.eGFP; AAV9.X^on.eGFP 3E11 vg/mouse IV, single dose LMI070 5 or 50 mg/kg, 24 h later): notable eGFP expression
induction in liver after repeat dosing (AAV9.X^on.eGFP; LMI070 50 mg/kg oral, second dose after one week washout, histology, western blot, splicing assay): evident in liver after the first and the second dose
induction in skeletal muscle and heart (AAV9.X^on.eGFP; LMI070 50 mg/kg oral, histology and splicing assay): notable
protein levels and novel exon splicing versus dose (AAV9.X^on.eGFP; liver, LMI070 5 or 50 mg/kg): directly correlated to the LMI070 dose
relative level of induction in heart (AAV9.X^on.eGFP; [2]): ~ 3000 fold
relative level of induction in liver (AAV9.X^on.eGFP; [2]): ~1000 fold
